“And” between values parts separate entries of the source, which are not always exact repeats. Equal values may be shown once. Inconclusive results and toxic doses are left out.
System: CD2F1 mice, L1210 leukemia ip, survival T/C
Assay: NCI In Vivo Anticancer Drug Screen. Data for tumor model L1210 Leukemia (intraperitoneal) in CD2F1 (CDF1) mice
Settings: endpoint: mean survival time, higher = longer survival
Method in brief: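 Ratio T/C, where T is the treated-group value and C the vehicle-dosed control value, from mice implanted with a transplantable tumor.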

[1] = dose: 100.0 mg/kg/injection, schedule: Q04DX003 (ip), vehicle: Klucel (hydroxypropylcellulose) (HPC)
[2] = dose: 200.0 mg/kg/injection, schedule: Q04DX003 (ip), vehicle: Klucel (hydroxypropylcellulose) (HPC)
[3] = dose: 400.0 mg/kg/injection, schedule: Q04DX003 (ip), vehicle: Klucel (hydroxypropylcellulose) (HPC)
[4] = dose: 100.0 mg/kg/injection, schedule: Q04DX002 (ip), vehicle: saline with Tween-80
[5] = dose: 100.0 mg/kg/injection, schedule: Q01DX001 (ip), vehicle: saline
[6] = dose: 200.0 mg/kg/injection, schedule: Q01DX001 (ip), vehicle: saline
[7] = dose: 100.0 mg/kg/injection, schedule: Q01DX009 (ip), vehicle: saline with Tween-80
[8] = dose: 200.0 mg/kg/injection, schedule: Q01DX009 (ip), vehicle: saline with Tween-80
[9] = dose: 400.0 mg/kg/injection, schedule: Q01DX009 (ip), vehicle: saline with Tween-80

Structure (SMILES): CC(=O)Nc1ccc(C)cc1C
- T/C [1]: 94 % of control
- T/C [2]: 103 % of control
- T/C [3]: 97 % of control

Structure (SMILES): O=C(Nc1ccc([N+](=O)[O-])cc1)OCc1ccccc1
- T/C (dose: 50.0 mg/kg/injection, schedule: Q04DX002 (ip), vehicle: saline with Tween-80): 104 % of control
- T/C [4]: 100 % of control
- T/C (dose: 200.0 mg/kg/injection, schedule: Q04DX002 (ip), vehicle: saline with Tween-80): 108 % of control

Structure (SMILES): O=C(Nc1c(Oc2ccc(Cl)cc2)ccc(Cl)c1S(=O)(=O)O)Nc1c(Oc2ccc(Cl)c(Cl)c2)ccc(Cl)c1S(=O)(=O)O
- T/C [5]: 93 % of control
- T/C [6]: 88 % of control

Structure (SMILES): OCCCCSc1ccccc1
- T/C (dose: 75.0 mg/kg/injection, schedule: Q04DX003 (ip), vehicle: saline): 98 % of control
- T/C (dose: 150.0 mg/kg/injection, schedule: Q04DX003 (ip), vehicle: saline): 98 % of control
- T/C (dose: 300.0 mg/kg/injection, schedule: Q04DX003 (ip), vehicle: saline): 91 % of control

Structure (SMILES): CN(C)[C@@H]1C(=O)C(C(=O)NCNC(Cc2ccc(N(CCCl)CCCl)cc2)C(=O)O)=C(O)[C@@]2(O)C(=O)C3=C(O)c4c(O)cccc4[C@@](C)(O)[C@H]3C[C@@H]12 (stereo partly drawn)
- T/C (dose: 100.0 mg/kg/injection, schedule: Q01DX001 (ip), vehicle: other): 164 % of control

Structure (SMILES): O=C(N/N=C/c1cccc(Cl)c1)c1ccccc1
- T/C [7]: 94 % of control
- T/C [1]: 96 % of control
- T/C [8]: 94 % of control
- T/C [2]: 94 % of control
- T/C [9]: 96 % of control
- T/C [3]: 94 % of control

Structure (SMILES): [Cl][Pd][Cl]
- T/C (dose: 12.5 mg/kg/injection, schedule: Q01DX009 (ip), vehicle: saline sonified): 95 % of control
- T/C (dose: 12.5 mg/kg/injection, schedule: Q04DX003 (ip), vehicle: saline with Tween-80): 107 % of control
- T/C (dose: 25.0 mg/kg/injection, schedule: Q04DX003 (ip), vehicle: saline with Tween-80): 103 % of control
- T/C (dose: 50.0 mg/kg/injection, schedule: Q04DX003 (ip), vehicle: saline with Tween-80): 91 % of control

Structure (SMILES): NNC(=O)c1cc(Cl)cc(C(=O)NN)n1
- T/C (dose: 50.0 mg/kg/injection, schedule: Q01DX009 (ip), vehicle: saline with Tween-80): 97 % of control

Structure (SMILES): O=C(NNC(=O)c1ccncc1)NS(=O)(=O)c1ccc(Cl)cc1
- T/C (dose: 50.0 mg/kg/injection, schedule: Q01DX009 (ip), vehicle: Klucel (hydroxypropylcellulose) (HPC)): 101 % of control
- T/C (dose: 100.0 mg/kg/injection, schedule: Q01DX009 (ip), vehicle: Klucel (hydroxypropylcellulose) (HPC)): 90 % of control
- T/C (dose: 200.0 mg/kg/injection, schedule: Q01DX009 (ip), vehicle: Klucel (hydroxypropylcellulose) (HPC)): 97 % of control

Structure (SMILES): CCCCCCCCCCCCCCCOc1ccc(OCCCCCCCCCCCCCC)cc1
- T/C (dose: 200.0 mg/kg/injection, schedule: Q01DX001 (ip), vehicle: saline with Tween-80): 89 % of control
- T/C (dose: 400.0 mg/kg/injection, schedule: Q01DX001 (ip), vehicle: saline with Tween-80): 88 % of control

Structure (SMILES): CC1(C)C(N2CCCCC2)CS1(=O)=O (stereo not drawn)
- T/C (dose: 25.0 mg/kg/injection, schedule: Q04DX003 (ip), vehicle: saline): 98 % of control
- T/C (dose: 50.0 mg/kg/injection, schedule: Q04DX003 (ip), vehicle: saline): 95 % of control
- T/C [5]: 101 % of control

Structure (SMILES): C1CC[N-]CC1.C1CC[N-]CC1.C1CC[N-]CC1.C1CC[N-]CC1.[Co].[N-]=C=S.[N-]=C=S
- T/C [4]: 123 % of control

Structure (SMILES): c1ccc2c(P(c3cccc4ccccc34)c3cccc4ccccc34)cccc2c1
- T/C [5]: 100 % of control
- T/C [6]: 93 % of control
- T/C (dose: 400.0 mg/kg/injection, schedule: Q01DX001 (ip), vehicle: saline): 89 % of control

Structure (SMILES): CCCCNC(=O)Nc1ccccc1Cl
- T/C [7]: 91 % of control
- T/C (dose: 100.0 mg/kg/injection, schedule: Q04DX003 (ip), vehicle: saline with Tween-80): 101 % of control
- T/C [8]: 94 % of control
- T/C (dose: 200.0 mg/kg/injection, schedule: Q04DX003 (ip), vehicle: saline with Tween-80): 100 % of control
- T/C [9]: 100 % of control
- T/C (dose: 400.0 mg/kg/injection, schedule: Q04DX003 (ip), vehicle: saline with Tween-80): 92 % of control

Structure (SMILES): O=C1OC(=O)C2=C1C1C3C=CCC3C2N2C=CC=CC12 (stereo not drawn)
- T/C (dose: 100.0 mg/kg/injection, schedule: Q01DX001 (ip), vehicle: Klucel (hydroxypropylcellulose) (HPC)): 105 % of control
- T/C (dose: 200.0 mg/kg/injection, schedule: Q01DX001 (ip), vehicle: Klucel (hydroxypropylcellulose) (HPC)): 93 % of control

Structure (SMILES): NC(=S)N=Nc1c(O)cc(O)c2[nH]c(=O)ccc12
- T/C [5]: 109 % of control

Structure (SMILES): Cc1c[n+](Cc2ccccc2)ccn1
- T/C (dose: 75.0 mg/kg/injection, schedule: Q01DX001 (ip), vehicle: saline): 102 % of control
- T/C (dose: 150.0 mg/kg/injection, schedule: Q01DX001 (ip), vehicle: saline): 102 % of control
- T/C (dose: 300.0 mg/kg/injection, schedule: Q01DX001 (ip), vehicle: saline): 98 % of control

Structure (SMILES): O=C1OC(Cl)(c2cccc3ccccc23)c2ccccc21 (stereo not drawn)
- T/C [1]: 87 % of control
- T/C [2]: 87 % of control
- T/C [3]: 94 % of control

Structure (SMILES): NC(N)=Nc1nc(N)nc(N)n1
- T/C (dose: 3.13 mg/kg/injection, schedule: Q01DX009 (ip), vehicle: saline with Tween-80): 104 % of control
- T/C (dose: 6.25 mg/kg/injection, schedule: Q01DX009 (ip), vehicle: saline with Tween-80): 107 % of control
- T/C (dose: 12.5 mg/kg/injection, schedule: Q01DX009 (ip), vehicle: saline with Tween-80): 104 % of control and 110 % of control

Reference: PubChem BioAssay AID256 (DTP/NCI, 2004)
